Measurements as given in patent US20240109924A1, “IP4-4,6 SUBSTITUTED DERIVATIVE COMPOUNDS” (SANIFIT THERAPEUTICS, S.A., priority 2021, published 2024).
pEC50: −log10 of the molar value.

What was measured:
tissue calcification = assay: In vivo tissue calcification (calcium content by ICP-OES) in vitamin D3-induced limb ischemia rat model; conditions: SD rats, vitamin D3 150,000 IU/kg s.c. D1-D3, 30 mg/kg s.c. daily D1-D5, sacrifice D5; for Inhibition of calcification (%) Femoral: femoral arteries; for Inhibition of calcification (%) Kidney: right kidney
Protocol: (§1) The effects of compounds 1, 6, 9, 14, 18, 31, and 39 over blood perfusion and tissue calcification after the inception of limb ischemia were tested using a rat model for a duration of 5 days. Limb ischemia was induced to all groups from D1 to D3 excepting the sham group, to which no ischemia was induced. The animals were administered placebo and active agent formulations from D1 to D5. Observations were taken at several points during the treatment from D0 to D5. All animals were weighed every day before treatment. Seventy-two male Sprague Dawley (SD) rats (Envigo Corp., Huntingdon, GB) weighing approximately 150-200 g were used. The rats were fed with a […]® Rod14-H diet ([…] GmbH, Soest, DE). The rats were divided in 9 groups, 8 animals per group, as follows: • Group 1-Control (Sham) • Group 2-Physiological saline solution • Group 3-Compound 1 • Group 4-Compound 6 • Group 5-Compound 9 • Group 6-Compound 14 • Group 7-Compound 18 • Group 8-Compound 31 • Group 9-Compound 39 Limb ischemia was induced in the rats of groups 2-9 by subcutaneous administration of 150,000 IU/kg vitamin D3 (cholecalciferol, Duphafral D3 1000; Zoetis Inc., Parsippany, NJ, US) in physiological saline solution (2 mL/kg) every day during D1 to D3. The rats of group 1 were not administered vitamin D3. The rats in groups 1 and 2 were administered 2 mL/kg of physiological saline solution daily from D1 to D5 via subcutaneous route. The animals in groups 3-9 were administered subcutaneously 30 mg/kg of compounds 1, 6, 9, 14, 18, 31, and 39, respectively, in physiological saline solution (2 mL/kg), every day from D1 to D5. All rats of groups 1-9 were sacrificed on D5 30 minutes after dosing for determining their Ca baseline values. The animals were anesthetized by isoflurane inhalation. The whole aorta, carotids, femoral arteries, heart, and right kidney of the subjects were collected for calcium content measurement. The tissues were lyophilized for 48-72 h and weighed. The lyophilized tissues were then digested using a 1:1 HNO3:HClO4 mixture in a dry bath incubator for 2-4 h at 180° C. The digested tissues were subsequently diluted using ultra-pure MilliQ® water (MilliporeSigma (Merck KGaA), Burlington, MA, US) to a final volume of 5 mL (i.e., for femoral arteries and carotids) of 10 mL (i.e., for heart, kidneys, and aorta). Calcium content was quantified via inductively coupled plasma optical emission spectrometry (ICP-OES) using an Optima 7300 DV ICP-OES System spectrometer (PerkinElmer, Inc., Waltham, MA, US) according to the manufacturer's instructions. Average blood perfusion recovery compared to vehicle and sham were also calculated. Recovery for sham was 100%. Blood perfusion recovery calculated was using the following equation: 100-((BP sham-BP new drug)/(BP sham-BP vehicle)*100).

blood perfusion = assay: In vivo blood perfusion (laser doppler perfusion imaging) in vitamin D3-induced limb ischemia rat model; conditions: average blood perfusion recovery vs vehicle and sham (sham 100%), SD rats, 30 mg/kg s.c. daily D1-D5
Protocol: as §1, with “to D5. Limb functional and ischemia status were evaluated by using a laser doppler perfusion imaging apparatus PeriCam PSI Normal Resolution (Perimed AB, Järfälla, SE) in all groups at D0 and D5. The perfusion difference and perfusion ratio were calculated by comparing the baseline and either D0 or D5 readings for each group. In addition, the blood perfusion ratio of each treatment group (i.e., groups 2 to 9) to sham group was also calculated. All rats” for “to D5. All rats”

[1] = In vitro inhibition of calcium phosphate crystallization in human plasma (spectrophotometric assay); format: biochemical; conditions: 0-100 μM, 1.5 mM phosphate, 12.5 mM calcium, pH 7.4, absorbance 550 nm, slope 6-24 min, read-out: Relative Potency
Protocol: The in vitro efficacy of the IP4-4,6 substituted derivatives (e.g., Compounds 1 to 53) of the invention on the inhibition of calcium phosphate crystallization in human plasma samples was evaluated according to a spectrophotometric assay previously described in the art (Ferrer M, et al., Sci Rep 2017; 7:6858, doi:10.1038/s41598-017-07203-x).
A 96-well plate was employed. Plasma was spiked (1 volume of the IP4-4,6 substituted derivatives of the invention per 19 volumes of plasma) with increasing concentrations of the derivatives in the range of 0-100 μM. Plasma was then centrifuged at 10,000 g at rt and subsequently mixed with a mixture of 5 mM hydrogen phosphate and 41.67 mM calcium to attain final concentrations of 1.5 mM phosphate and 12.5 mM calcium, respectively. All reagent solutions were filtered, and pH adjusted to 7.4.
Crystallization of calcium phosphate was monitored spectrophotometrically for 30 min at rt by measuring the increments in absorbance at 550 nm using the Biotek Powerwave XS Microplate spectrophotometer (BioTek Instruments, Inc., Winooski, VT, US). The plate was incubated at rt in an orbital shaker and absorbance measured every 3 min.
Plasma crystallization was assessed based on slope measurement in the linear range between 6 and 24 min from plots of increase in absorbance versus logarithm of time. The efficacy of different myo-inositol phosphates derivatives in preventing in vitro formation of calcium phosphate crystals was assessed in human plasma samples using the slopes obtained between 6- and 24-min. Inhibition of crystallization was measured by comparing the slopes of the control sample (blank plasma) with those of samples containing the inhibitor as shown below: […]

| Structure (SMILES) | Inhibition of calcification (%) Aorta (tissue calcification) | Inhibition of calcification (%) Carotid (tissue calcification) | Inhibition of calcification (%) Femoral (tissue calcification) | Inhibition of calcification (%) Heart (tissue calcification) | Inhibition of calcification (%) Kidney (tissue calcification) | BP recovery (%) (blood perfusion) | pEC50 [1] |
| --- | --- | --- | --- | --- | --- | --- | --- |
| CCCCCO[C@@H]1[C@@H](OP(=O)([O-])[O-])[C@H](OCCCCC)[C@@H](OP(=O)([O-])[O-])[C@@H](OP(=O)([O-])[O-])[C@H]1OP(=O)([O-])[O-].[Na+].[Na+].[Na+].[Na+].[Na+].[Na+].[Na+].[Na+] [Compound 1, 4,6-O-dipentyl-myo-inositol-1,2,3,5-tetrakis(phosphate) octasodium salt] | Over (Average inhibition percentage over or under 25% inhibition of calcification.) | Under (Average inhibition percentage over or under 25% inhibition of calcification.) | Over (Average inhibition percentage over or under 25% inhibition of calcification.) | Over (Average inhibition percentage over or under 25% inhibition of calcification.) | Over (Average inhibition percentage over or under 25% inhibition of calcification.) | Under (Average blood perfusion recovery over or under 25%.) | ≥ 5.30 |
| O=P([O-])([O-])O[C@@H]1[C@@H](OCCCCCO)[C@H](OP(=O)([O-])[O-])[C@H](OP(=O)([O-])[O-])[C@H](OP(=O)([O-])[O-])[C@H]1OCCCCCO.[Na+].[Na+].[Na+].[Na+].[Na+].[Na+].[Na+].[Na+] [Compound 6, 4,6-O-bis(5-hydroxypentyl)-myo-inositol-1,2,3,5-tetrakis(phosphate) octasodium salt] | Over (Average inhibition percentage over or under 25% inhibition of calcification.) | Under (Average inhibition percentage over or under 25% inhibition of calcification.) | Over (Average inhibition percentage over or under 25% inhibition of calcification.) | Over (Average inhibition percentage over or under 25% inhibition of calcification.) | Over (Average inhibition percentage over or under 25% inhibition of calcification.) | Over (Average blood perfusion recovery over or under 25%.) | ≥ 5.30 |
| COCCCCCO[C@@H]1[C@@H](OP(=O)([O-])[O-])[C@H](OCCCCCOC)[C@@H](OP(=O)([O-])[O-])[C@@H](OP(=O)([O-])[O-])[C@H]1OP(=O)([O-])[O-].[Na+].[Na+].[Na+].[Na+].[Na+].[Na+].[Na+].[Na+] [Compound 9, 4,6-O-bis(5-methoxypentyl)-myo-inositol-1,2,3,5-tetrakis(phosphate) octasodium salt] | Under (Average inhibition percentage over or under 25% inhibition of calcification.) | Under (Average inhibition percentage over or under 25% inhibition of calcification.) | Over (Average inhibition percentage over or under 25% inhibition of calcification.) | Over (Average inhibition percentage over or under 25% inhibition of calcification.) | Over (Average inhibition percentage over or under 25% inhibition of calcification.) | Over (Average blood perfusion recovery over or under 25%.) | ≥ 5.30 |
| NCCCCCO[C@@H]1[C@@H](OP(=O)([O-])[O-])[C@H](OCCCCCN)[C@@H](OP(=O)([O-])[O-])[C@@H](OP(=O)([O-])[O-])[C@H]1OP(=O)([O-])[O-].[Na+].[Na+].[Na+].[Na+].[Na+].[Na+].[Na+].[Na+] [Compound 14, 4,6-O-bis(5-aminopentyl)-myo-inositol-1,2,3,5-tetrakis(phosphate) octasodium salt] | Under (Average inhibition percentage over or under 25% inhibition of calcification.) | Under (Average inhibition percentage over or under 25% inhibition of calcification.) | Over (Average inhibition percentage over or under 25% inhibition of calcification.) | Over (Average inhibition percentage over or under 25% inhibition of calcification.) | Over (Average inhibition percentage over or under 25% inhibition of calcification.) | Over (Average blood perfusion recovery over or under 25%.) | ≥ 5.30 |
